Where a name gives a salt, the structure may show the parent alone.

One may read the % Inhibition as the share of the control response that was lost under treatment. For orientation: IC50 means the concentration needed to halve the response being measured.

In one assay the target is binding of recombinant, trimeric SARS-CoV-2 spike protein to recombinant human ACE2 (Severe acute respiratory syndrome coronavirus 2, UniProt P0DTC2, K986P/R682G/R683S/R685S/V987P). Briefly: biochemical. On the set-up: species or system SARS-CoV-2 / human.
Conditions: not given
`C=CC(=O)Nc1cccc(Oc2nc(Nc3ccc(N4CCN(C)CC4)cc3)nc3ccsc23)c1` [Olmutinib]: the “% Inhibition” value was determined as 98%.
Same read-out and setting: the figure for `CCN(CC)Cc1cc(Nc2ccnc3cc(Cl)ccc23)ccc1O` [Amodiaquine hydrochloride] is 90%.
On the same count and under the same terms, then `CCCCCCCCN=c1ccn(CCCCCCCCCCn2ccc(=NCCCCCCCC)cc2)cc1` [Octenidine Dihydrochloride], with 100%; and `Cn1cncc1[C@@](N)(c1ccc(Cl)cc1)c1ccc2c(c1)c(-c1cccc(Cl)c1)cc(=O)n2C` [Tipifarnib], with 98%; and `CO[C@H]1C[C@H](O[C@H]2[C@H](C)O[C@@H](O[C@@H]3/C(C)=C/C[C@@H]4C[C@@H](C[C@]5(C=C[C@H](C)[C@@H](C6CCCCC6)O5)O4)OC(=O)[C@@H]4C=C(C)[C@@H](O)[C@H]5OC/C(=C\C=C\[C@@H]3C)[C@]54O)C[C@@H]2OC)O[C@@H](C)[C@@H]1O` [Doramectin], with 96%.
With `COC(=O)N[C@H](C(=O)N1CCC[C@H]1c1nc(-c2ccc3c(c2)O[C@@H](c2ccccc2)n2c-3cc3cc(-c4c[nH]c([C@@H]5CCCN5C(=O)[C@@H](NC(=O)OC)C(C)C)n4)ccc32)c[nH]1)C(C)C` [Elbasvir], the “% Inhibition” value turned out to be 100%.
`Cc1ccc(-c2cc(C(F)(F)F)nn2-c2ccc(S(N)(=O)=O)cc2)cc1` [Celecoxib]: the “% Inhibition” value is recorded as 93% and the IC50 was determined as 61.5 µM.
Regarding `Cc1cn(-c2cc(NC(=O)c3ccc(C)c(Nc4nccc(-c5cccnc5)n4)c3)cc(C(F)(F)F)c2)cn1.Cl` [Nilotinib HCl, Nilotinib Hydrochloride], the “% Inhibition” value is 99%.
On to `CN(C)c1ccc(C(=C2C=CC(=[N+](C)C)C=C2)c2ccc(N(C)C)cc2)cc1` [Crystal Violet], for which the “% Inhibition” value is 98%.
The same measure, in the same setting: the figure for `CCOc1cc([C@@H](CS(C)(=O)=O)N2C(=O)c3cccc(NC(C)=O)c3C2=O)ccc1OC` [Apremilast (CC-10004), Apremilast] is 96%; for `COc1ccc(CN=c2[nH]c(N3CCC[C@H]3CO)ncc2C(=O)NCc2ncccn2)cc1Cl` [Avanafil] it is 99%.
Same read-out and setting: then `COc1cc(-c2coc3cc4c(c(OC)c3c2=O)OCO4)cc(OC)c1OC` [Irisflorentin], with 97%; and `CCOC(=O)c1c(CSc2ccccc2)n(C)c2cc(Br)c(O)c(CN(C)C)c12.Cl` [Arbidol HCl], with 95%.
Still for that read-out and setting: then `COC(=O)N[C@H](C(=O)N1CCC[C@H]1c1nc(-c2ccc(-c3ccc(-c4c[nH]c([C@@H]5CCCN5C(=O)[C@@H](NC(=O)OC)C(C)C)n4)cc3)cc2)c[nH]1)C(C)C` [Daclatasvir Dihydrochloride], with 97%.
Turning to `CN(C)c1ccc2nc3ccc(=[N+](C)C)cc-3sc2c1` [Methylene Blue], the “% inhibition in first-round screen” value turned out to be 44%.
Turning to `COc1cc([C@@H]2c3cc4c(cc3[C@H](O)[C@H]3COC(=O)[C@@H]23)OCO4)cc(OC)c1OC` [Picropodophyllin], the “% Inhibition” value was 98%.
Regarding `CC[C@@H]([C@H](C)O)n1ncn(-c2ccc(N3CCN(c4ccc(OC[C@@H]5CO[C@@](Cn6cncn6)(c6ccc(F)cc6F)C5)cc4)CC3)cc2)c1=O` [Posaconazole], the “% Inhibition” value stood at 97%.
On to `Cc1ccc(NC(=O)c2ccc(CN3CCN(C)CC3)cc2)cc1Nc1nccc(-c2cccnc2)n1` [Imatinib], for which the “inhibition of spike-ACE2 binding in the screen” value was “failed to inhibit”.
As to `CC[C@@]1(O)C(=O)OCc2c1cc1n(c2=O)Cc2cc3cc(O)ccc3nc2-1` [S-(10)-hydroxycamptothecin, (S)-10-Hydroxycamptothecin], the “% Inhibition” value worked out at 100%.
Turning to `CCc1c2c(nc3ccc(OC(=O)N4CCC(N5CCCCC5)CC4)cc13)-c1cc3c(c(=O)n1C2)COC(=O)[C@]3(O)CC` [Irinotecan], the “inhibition of spike-ACE2 binding in the screen” value is reported as “did not inhibit”.
Regarding `C[C@@H]1C[C@H]2[C@@H]3CCC4=CC(=O)C=C[C@]4(C)[C@@]3(Cl)[C@@H](O)C[C@]2(C)[C@@]1(OC(=O)c1ccco1)C(=O)CCl` [Mometasone furoate], the “% Inhibition” value is 98%.
On the same count and under the same terms, then `CO[C@H]1C[C@@H]2CC[C@@H](C)[C@@](O)(O2)C(=O)C(=O)N2CCCC[C@H]2C(=O)O[C@H]([C@H](C)C[C@@H]2CC[C@H](n3cnnn3)[C@H](OC)C2)CC(=O)[C@H](C)/C=C(\C)[C@@H](O)[C@@H](OC)C(=O)[C@H](C)C[C@H](C)/C=C/C=C/C=C/1C` [Zotarolimus(ABT-578), Zotarolimus], with 96%; and `C[C@@H](O[C@H]1OCCN(Cc2n[nH]c(=O)[nH]2)[C@H]1c1ccc(F)cc1)c1cc(C(F)(F)F)cc(C(F)(F)F)c1` [Aprepitant], with 94%.

Staying with this assay, now noted: read-out: EC 50.
`CO[C@H]1C[C@H](O[C@H]2[C@H](C)O[C@@H](O[C@@H]3/C(C)=C/C[C@@H]4C[C@@H](C[C@]5(C=C[C@H](C)[C@@H](C6CCCCC6)O5)O4)OC(=O)[C@@H]4C=C(C)[C@@H](O)[C@H]5OC/C(=C\C=C\[C@@H]3C)[C@]54O)C[C@@H]2OC)O[C@@H](C)[C@@H]1O` [Doramectin]: the EC50 amounted to 12.8 µM.

Still in this assay, the particulars now being: read-out: IC50 Mean.
Consider `CO[C@H]1C[C@H](O[C@H]2[C@H](C)O[C@@H](O[C@@H]3/C(C)=C/C[C@@H]4C[C@@H](C[C@]5(C=C[C@H](C)[C@@H](C6CCCCC6)O5)O4)OC(=O)[C@@H]4C=C(C)[C@@H](O)[C@H]5OC/C(=C\C=C\[C@@H]3C)[C@]54O)C[C@@H]2OC)O[C@@H](C)[C@@H]1O` [Doramectin], for which the IC50 was determined as 12.8 µM.

For the origin of these results see paper PMC8236845.
